Data on 5 compounds can be found in patent publication US20140256663A1, “Amphotericin Analogous Compounds and Pharmaceutical Compositions Containing Them” (CENTRO DE INVESTIGACION Y DE ESTUDIOS AVANZADOS DEL …, priority 2010, published 2014).

Data set [1] deals with Candida albicans ATCC 752. Kind of data set: Antifungal activity in vitro by flow cytometry, Candida albicans ATCC 752. The settings on record: ATCC752, 24 h at 37° C., read-out: CF50 Candida albicans ATCC 752. The class given is cell-based. The protocol: (§1) The antifungal activity of the polyene macrolide derivate of the present invention was determined by flow cytometry method earlier described (Pinto et al., J. Medical Microbiology, 2009; 58, 1454-1462; Pina-Vaz and Rodriguez, Methods Mol. Biol. 2010; 638:281-289). For the test two strains of Candida albicans (ATCC 10231 and 752) and Candida kruzei were used. A cellular suspension of 1×10^6 UFC/mL was used, which has sown in 96-well plates. […] As controls were used: untreated yeasts (control of living cells), yeasts exposed to UV radiation (arrest, inhibition of proliferation), and yeasts exposed at temperature of 100° C. (dead yeasts). Cells were collected by centrifugation at 10,000×g for 10 min, they were washed once in phosphate buffer. […] of propidium iodide 0.1 mg/mL were added to the cell suspension. It was incubated during 30 minutes at room temperature and protected from light. Finally, the samples were analyzed by flow cytometry (Becton-Dickinson Facsc Calibur, laser argon 480 nm). The intrinsic parameters and fluorescence in the FL2 channel (yellow/orange fluorescence) for FUN and channel FL3 (red fluorescence, filter 630 nm) for propidium iodide were acquired and registered on a logarithmic scale for a minimum of 7500 events per sample. For data analysis, the quadrants were adjusted in a plot of data lines of fluorescence intensity of samples. […] These quadrants were used to quantify the percentile of cells showing altered fluorescence compared to drug-free controls.
Background: Flow cytometry measures light scatter and fluorescence of single cells or particles in a stream.

Another data set concerns human erythrocytes. Kind of data set: Hemolytic assay on human erythrocytes. The following applies: 1 hour. The class given is cell-based. The protocol:
The hemotoxicity of the polyene macrolide derivative of the present invention was determined by measuring the toxicity to human erythrocytes (values HE50) using a method established by Cybulska, et al. (Cybulska, B., Borowski, E. and Gary-Bobo, M. Relationship between ionophoric and hemolytic activities of perimycin A and vacidin A, two polyene macrolide antifungal antibiotics. Biochem Pharmacol. 1989; 38(11): 1755-1762). For determining the haematoxicity 2 mL blood were obtained and placed in a tube with EDTA. The number of erythrocytes was counted in a Neubauer chamber, and 1×10^7 cells/mL were placed in test tubes. The erythrocytes were resuspended in 450 μL of KCl 150 mM+Tris 3 mM buffer. The erythrocytes were treated with concentrations of 0.01, 0.1, 1, 10 y 100 μM and incubated in a water bath for 1 hour. They were then centrifuged at 1500 rpm for 15 seconds; 150 μL were taken from the supernatant and placed in 96-well plates; the optical density of each group was measured using a plate reader at a wavelength of 550 nm. We included one tube with the drug solvent (DMSO 1%) as internal control. We also included one tube only with erythrocytes and 500 μl of buffer KCl 150 mM+Tris 3 mM, which we consider as a negative control group and a tube with 500 μl of red cells and 35 mM NaCl (positive control).

Data set [2] relates to human renal cells 293Q (ATCC CLR-1573). Kind of data set: MTT cytotoxicity on human renal cells 293Q. The settings on record: human renal cells 293Q, 24 h. On the procedure: For cytotoxicity studies human kidney cells (ATCC No. CRL-1573) were used. The cells were cultured with Minimum Essential Medium (MEM) (GIBCO BRL), supplemented with 10% fetal bovine serum (FBS) (GIBCO BRL), 2 mM 1-glutamine (GIBCO BRL), 1.5 gL Na2HCO3 (Sigma Chemical Co), 0.1 mM nonessential amino acids (Sigma Chemical Co), and 1 mM sodium pyruvate (In vitro, S.A.). The technique of bromide of 3(4,5-dimethylthiazol-2-yl)-2,5-diphenyl tetrazolium (MTT) (Sigma Chemical Co) was applied; a technique which is based on the conversion of dye to an insoluble precipitate called formazan. This test is used as an indicator of mitochondrial function in living cells that measures the metabolic capacity in cells and serves as an indicator of cytotoxicity. […] (Mosman […], Immunol Methods, 65: 55-63). The cytoxicity test consisted of planting 10,000 cells per well in 96-well plates (Corning Incorporated Costar) in MEM and incubate them (Nuaire us autoflow CO2 water-jacketed incubator) during 24 h at 37° C. and 5% CO2. […] After incubation, cells were treated and incubated anew for 24 h. After this time the medium was aspirated carefully and replaced with 200 μL of fresh medium, and 50 μL of MTT was added for a total volume of 250 μl. They were then incubated for 4 hours in the above conditions. After that time the medium with MTT was carefully removed and 200 μL of DMSO and 25 μL of Sorensen buffer (0.1 M glycine+0.1 M NaCl at pH 10.5) were added to each well. The plate was then mixed until the formazan crystals dissolved, and it was finally read in a plate reader (Microplate Limaning System Ultramark, Biorad) at a wavelength of 550 nm.
For the tests, we used human renal ephythelial cells (293Q) (ATCC Catalog No. CRL-1573). The cells were cultured with Minimum Essential Medium (MEM) (GIBCO BRL) supplemented with 10% fetal bovine serum (FBS) (GIBCO BRL), 2 mM L-glutamine (GIBCO BRL), 1.5 g/L Na2HCO3 (Sigma Chemical Co), 0.1 mM nonessential amino acids (Sigma Chemical Co), and 1 mM sodium pyruvate (In vitro, S.A.). For cytoxicity tests, we applied the technique of bromide 3(4,5-dimethylthiazol-2-yl)-2,5-diphenyl tetrazolium (MTT) (Sigma Chemical Co), which is based on the conversion of the dye to an insoluble precipitate called formazan. This test is used as an indicator of mitochondrial function in living cells which measures the metabolic capacity in cells and serves as an indicator of cytotoxicity. (Wang, H. Z., Chang, C. H., Lin, C. P., Tsai, M. C). Using MTT viability assay to test the cytotoxicity of antibiotics and steroid to cultured porcine corneal endothelial cells. J. Ocul. Pharmacol. Ther. 1996; 12: 35-43). For the essay 10,000 cells were seeded per well in 96-well plates (Corning Incorporated Costar) in the medium already indicated and incubated for 24 h at 37° C. and 5% CO2. […] After incubation, cells were treated and incubated again for 24 h. The medium was carefully aspirated and replaced with 200 μl fresh medium, adding 50 μl MTT solution for a total volume of 250 μl. They were then incubated for 4 hours in the above conditions. The medium was carefully removed with MTT and 200 μl DMSO and 25 μl Sorense buffer (0.1 M glycine+0.1 M NaCl at pH 10.5) was added to each well. Then the plate was mixed until the formazan crystals dissolved; it was finally read in a reader plate (Microplate Limaning System Ultramark, Biorad) at a wavelength of 550 nm.

A short description of data set [3]: Unit channel studies in chicken egg lecithin bilayers with cholesterol. The settings on record: 200 μM compound; 30 mol % cholesterol, 27° C. On the procedure: The activity is determined by the presence of the different channels formed by polyenes in the lipid bilayer (Cotero, et al., supra; Venegas, et al., supra). […] These values were determined by the technique of unit channel delineated above.
Unit channel studies were performed according to procedures described earlier (Cotero, et al., supra, Venegas, et al., supra). Required liposomal suspensions were prepared using lecithin with cholesterol or ergosterol. These suspensions were placed in an ultrasonic bath for 15 minutes to produce unilamellar vesicles. Subsequently, the suspension was placed in a 100 μl eppendorf and a lipid bilayer was formed on the tip of a micro-electrode. The unit channels of amphotericin and of the invented compounds were incorporated to this bilayer. The unit channel current of the various compounds was recorded with an electrometer, and then these records were analyzed by determining the activity of the compounds and the characteristics of the channels formed.
The activity is determined by the presence of the various channels formed by polyenes in the lipid bilayer (Cotero, et al., supra, Venegas, et al., supra). […] This conductance is the effect of all the channels present and was determined by the unit channel technique earlier described.

The subject of a further data set is Candida kruzei. Kind of data set: Antifungal activity in vitro by flow cytometry, Candida kruzei. The class given is cell-based. The following applies: 24 h at 37° C., read-out: CF50 Candida kruzei. On the procedure: as §1
Data set [4] relates to Candida albicans ATCC 10231. Kind of data set: Antifungal activity in vitro by flow cytometry, Candida albicans ATCC 10231. The format is cell-based. The following applies: ATCC10231, 24 h at 37° C., read-out: CF50 Candida albicans ATCC 10231. On the procedure:
as §1

Where only a bound is given, the exact number is not on record here.

With `CC1OC(O[C@H]2/C=C/C=C/C=C/C=C/C=C/C=C/C=C/C(C)[C@@H](O)C(C)C(C)OC(=O)C[C@H](O)C[C@H](O)CC[C@@H](O)[C@H](O)C[C@H](O)C[C@]3(O)CC(O)[C@@H](C(=O)NC4CCCCC4)C(C2)O3)C(O)C(N)C1O` (some centres unmarked) [A-2, N-cycloheximide of AmB], the IC50 in data set [1] is more than 100 µM. The “HE50 (Hemolysis 50)” value in the data set on human erythrocytes came out at 45 µM. Also, the “DT50 CitE50” value in data set [2] was determined as 120 µM. In addition, in data set [3], the “Opening probability, channel type I” value was 5%; the “Opening probability, channel type II” value is less than 1%; the “Opening probability, channel type III” value is on record as less than 1%; the “Opening probability, channel type IV” value is recorded as less than 1%. For the same compound, in data set [3], the “Opening probability, channel type V” value was less than 1% and the “Opening probability, channel type VI” value is on record as less than 1%. In addition, the IC50 in the data set on Candida kruzei was more than 100 µM. In data set [4], the IC50 is more than 50 µM.
As to `CC(NC(=O)[C@@H]1C(O)C[C@@]2(O)C[C@@H](O)C[C@@H](O)[C@H](O)CC[C@@H](O)C[C@@H](O)CC(=O)OC(C)C(C)[C@H](O)C(C)/C=C/C=C/C=C/C=C/C=C/C=C/C=C/[C@H](OC3OC(C)C(O)C(N)C3O)CC1O2)c1ccccc1` (stereo partly drawn) [A-4, N—(S)-α-phenylethylamide of AmB], the IC50 in data set [1] was more than 100 µM. For the same compound, the “HE50 (Hemolysis 50)” value in the data set with human erythrocytes was found to be 46 µM. In addition, the “DT50 CitE50” value in data set [2] came out at 80 µM. In addition, in data set [3], the “Opening probability, channel type I” value is 7%; the “Opening probability, channel type II” value was found to be 3%; the “Opening probability, channel type III” value came to 1%; the “Opening probability, channel type IV” value is less than 1%. In data set [3], the “Opening probability, channel type V” value is recorded as less than 1% and the “Opening probability, channel type VI” value was less than 1%. Further, the IC50 with Candida kruzei is more than 100 µM. Moreover, the IC50 in data set [4] is more than 50 µM.
With `CC1OC(O[C@H]2/C=C/C=C/C=C/C=C/C=C/C=C/C=C/C(C)[C@@H](O)C(C)C(C)OC(=O)C[C@H](O)C[C@H](O)CC[C@@H](O)[C@H](O)C[C@H](O)C[C@]3(O)CC(O)[C@@H](C(=O)N[C@H](C)c4ccccc4)C(C2)O3)C(O)C(N)C1O` (stereo partly drawn) [A-5, N—(R)-α-phenylethylamide of AmB], the IC50 in data set [1] is more than 100 µM. Also, the “HE50 (Hemolysis 50)” value with human erythrocytes is 42 µM. Further, the “DT50 CitE50” value in data set [2] turned out to be 100 µM. In data set [3], the “Opening probability, channel type I” value is listed as 10%; the “Opening probability, channel type II” value is reported as 2%; the “Opening probability, channel type III” value is reported as less than 1%; the “Opening probability, channel type IV” value is less than 1%. Besides, in data set [3], the “Opening probability, channel type V” value is less than 1% and the “Opening probability, channel type VI” value is less than 1%. The IC50 with Candida kruzei is more than 100 µM. In addition, in data set [4], the IC50 is more than 50 µM.
Regarding `COC(=O)C(Cc1c[nH]c2ccccc12)NC(=O)[C@@H]1C(O)C[C@@]2(O)C[C@@H](O)C[C@@H](O)[C@H](O)CC[C@@H](O)C[C@@H](O)CC(=O)OC(C)C(C)[C@H](O)C(C)/C=C/C=C/C=C/C=C/C=C/C=C/C=C/[C@H](OC3OC(C)C(O)C(N)C3O)CC1O2` (some centres unmarked) [A-6, N-(L)-tryptophanamide of AmB], the IC50 in data set [1] was more than 100 µM. The “HE50 (Hemolysis 50)” value with human erythrocytes worked out at 58 µM. For the same compound, in data set [2], the “DT50 CitE50” value came out at 120 µM. Further, in data set [3], the “Opening probability, channel type I” value came to 23%; the “Opening probability, channel type II” value is reported as 2%; the “Opening probability, channel type III” value is less than 1%; the “Opening probability, channel type IV” value is reported as less than 1%. In data set [3], the “Opening probability, channel type V” value is reported as less than 1% and the “Opening probability, channel type VI” value is recorded as “N.O”. Besides, the IC50 in the data set with Candida kruzei is more than 100 µM. Also, the IC50 in data set [4] was more than 50 µM.
Turning to `CC1/C=C/C=C/C=C/C=C/C=C/C=C/C=C/[C@H](OC2O[C@H](O)[C@@H](O)[C@H](N)[C@@H]2O)C[C@@H]2O[C@](O)(C[C@@H](O)C[C@@H](O)[C@H](O)CC[C@@H](O)C[C@@H](O)CC(=O)O[C@@H](C)[C@H](C)[C@@H]1O)C[C@H](O)[C@H]2C(=O)NCCc1c[nH]cn1` (some centres unmarked) [A-8, N-histaminamide of AmB], the IC50 in data set [1] is more than 100 µM; in the data set with Candida kruzei it was more than 100 µM; in data set [4] it was more than 50 µM.
